Reference: article PMC12263422, “Cryo-EM structure of the human THIK-1 K2P K^+ channel reveals a lower Y gate regulated by lipids and anesthetics” (Nature Structural & Molecular Biology, 2025)
Changes are numbered by the printed parent chain. “And” between values parts separate entries of the source, which are not always exact repeats. Equal values may be shown once. Read-outs that look alike come from different tables or passages of the source.

Tests used:
THIK-1 T110A = target: T1, THIK-1 T110A (Homo sapiens, UniProt Q9HB14, T110A); assay: Inside-out excised patch recordings, oocytes, THIK-1 T110A mutant; format: cell-based
T1 construct: expressed in transfected cells; host or cells: Xenopus oocytes (mRNA injection)
T1 sequence (Q9HB14 1-408 T110A): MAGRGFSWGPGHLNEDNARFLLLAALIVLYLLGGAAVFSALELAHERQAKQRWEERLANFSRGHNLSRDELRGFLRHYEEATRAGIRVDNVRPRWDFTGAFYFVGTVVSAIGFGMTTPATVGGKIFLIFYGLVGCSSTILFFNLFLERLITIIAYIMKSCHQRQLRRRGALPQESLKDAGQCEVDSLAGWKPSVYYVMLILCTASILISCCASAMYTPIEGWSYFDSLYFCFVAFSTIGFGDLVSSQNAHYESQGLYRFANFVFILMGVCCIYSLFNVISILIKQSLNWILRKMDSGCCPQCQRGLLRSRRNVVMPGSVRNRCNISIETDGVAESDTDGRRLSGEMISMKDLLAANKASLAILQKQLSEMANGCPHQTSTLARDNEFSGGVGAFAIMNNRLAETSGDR
Source text: (§1) Human K2P13.1 THIK-1 (GenBank accession number: NM_022054) and human K2P12.1 THIK-2 (NM_022055.1) were used in this study. For functional expression studies, the respective K^+ channel subtype coding sequences were subcloned into the oocyte expression vector pSGEM or the dual-purpose expression vector pFAW[41] and verified by sequencing. All mutant channels were obtained by site-directed mutagenesis and verified by sequencing. To increase surface expression and macroscopic currents, measurements of THIK-2 channels used a mutated ER retention motif, (R11A R12A R14A R15A R16A; THIK-2*)[20]. Vector DNA was linearized with NheI or MluI, and mRNA was synthesized in vitro using the SP6 or T7 AmpliCap Max High Yield Message Maker Kit (Cellscript, USA) or HiScribe T7 ARCA mRNA Kit (New England Biolabs).
(§2) Two-electrode voltage–clamp (TEVC) studies were performed in Xenopus oocytes. All animal use conformed to the Guide for the Care and Use of Laboratory Animals (NIH Publication 85–23), and all experiments using Xenopus toads were approved by the local ethics panels. Oocytes were stored at 17 °C in ND96 recording solution composed of (in mM): 96 NaCl, 2 KCl, 1.8 CaCl2, 1 MgCl2, 5 HEPES (pH 7.5 adjusted with NaOH and HCl), supplemented with Na-pyruvate (275 mg L^–1), theophylline (90 mg L^–1) and gentamicin (50 mg L^–1). Oocytes were injected with 1 ng mRNA for WT or mutant channels, and were incubated for 24–48 h at 17 °C. Two-electrode voltage clamp recordings were then performed as previously described[42],[43]. For macroscopic patch–clamp measurements, oocytes were obtained as described above incubated at 17 °C in a solution containing (mM): 54 NaCl, 30 KCl, 2.4 NaHCO3, 0.82 MgSO4 ×7 H2O, 0.41 CaCl2, 0.33 Ca(NO3)2 ×4 H2O and 7.5 TRIS (pH 7.4 adjusted with NaOH and HCl) for 1–4 days before use. Excised patch recordings in inside-out configuration conditions were performed at room temperature. Patch pipettes were made from thick-walled borosilicate glass GB 200TF-8P (Science Products), had resistances of 0.2–0.5 MΩ (tip diameter, 10–25 µm) and filled with a pipette solution (in mM): 120 KCl, 10 HEPES and 3.6 CaCl2 (pH 7.4 adjusted with KOH and HCl). Intracellular bath solutions and compounds were applied to the cytoplasmic side of excised patches for the various K^+ channels through a gravity flow multi-barrel pipette system. The intracellular solution had the following composition (in mM): 120 KCl, 10 HEPES, 2 EGTA and 1 pyrophosphate (pH adjusted with KOH and HCl). Currents were recorded with an EPC10 amplifier (HEKA Electronics) and sampled at 10 kHz or higher, with filtering set to 3 kHz (–3 dB) or higher, as appropriate for sampling rate. For measurements of GPCR activation, whole-cell currents were recorded for THIK-1 in transiently transfected HEK-293 cells. Cells were stimulated by a ramp protocol between −100 and +60 mV (holding potential, −80 mV). The pipette solution was composed of (in mM): 140 KCl, 2 MgCl2, 1 CaCl2, 2.5 EGTA and 10 HEPES (pH 7.3 adjusted with KOH and HCl). The extracellular bath solution had the following composition (in mM): 135 NaCl, 5 KCl, 2 MgCl2, 2 CaCl2, 10 glucose and 10 HEPES pH (pH 7.3 adjusted with NaOH and HCl). Oxotremorine M (Oxo-M) was added to extracellular bath solution to obtain the final concentration. Single-channel currents were recorded with an Axopatch 200B amplifier through a Digidata 1440A digitizer (Molecular Devices). Data were filtered at 2 kHz and recorded at a 200-kHz sampling rate with the program Clampex (Molecular Devices). Pipette solution and bath solution for cell-attached recordings contained (in mM): 140 KCl, 2 MgCl2, 1 CaCl2 and 10 HEPES (pH 7.4 adjusted with KOH and HCl). For inside-out recordings, the bath solution contained (in mM): 140 KCl, 2 MgCl2, 1 CaCl2 and 10 HEPES (pH 7.2 adjusted with KOH and HCl). All experiments were conducted at room temperature. […]

THIK-1 V269A = target: T2, THIK-1 V269A (Homo sapiens, UniProt Q9HB14, V269A); assay: Inside-out excised patch recordings, oocytes, THIK-1 V269A mutant; format: cell-based; conditions: for IC50: read-out: TPenA IC50
T2 construct: expressed in transfected cells; host or cells: Xenopus oocytes (mRNA injection)
T2 sequence (Q9HB14 1-408 V269A): T1 sequence (Q9HB14 1-408 T110A) with A110T, V269A
Source text: as §1, §2

With `FC(F)(F)C(Cl)Br` (centres unmarked) [halothane] the “Inhibition (%)” value (THIK-1 T110A; 3.0 mM halothane, T110A, individual recordings) was 71.250% and 68.098% and 66.319% and 64.813% and 55.507% and 41.148% and 63.240% and 65.945% and 75.271%, the inhibition at 152 µM (THIK-1 T110A; halothane 0.152 mM, THIK-1 T110A) was 9.23% and the inhibition at 304 µM (THIK-1 T110A; halothane 0.304 mM, THIK-1 T110A) was 14.1%. For the same compound, the inhibition at 1520 µM (THIK-1 T110A; halothane 1.52 mM, THIK-1 T110A) was 45.3%, the inhibition at 3040 µM (THIK-1 T110A; halothane 3.04 mM, THIK-1 T110A) was 63.5% and the inhibition at 15200 µM (THIK-1 T110A; halothane 15.2 mM, THIK-1 T110A) was 89.5%.

Compound `CCCCC[N+](CCCCC)(CCCCC)CCCCC` [TPenA, tetrapentylammonium] has a Normalized currents (THIK-1 T110A; THIK-1 T110A, 15.6 µM TPenA) of 1.00, a Normalized currents (THIK-1 T110A; THIK-1 T110A, 62.5 µM TPenA) of 0.95 and a Normalized currents (THIK-1 T110A; THIK-1 T110A, 250 µM TPenA) of 0.81. For the same compound, the Normalized currents (THIK-1 T110A; THIK-1 T110A, 1000 µM TPenA) was 0.57, the Normalized currents (THIK-1 T110A; THIK-1 T110A, 4000 µM TPenA) was 0.28 and the IC50 (THIK-1 T110A; TPenA IC50, T110A mutant) was 1280 µM. For the same compound, the IC50 (THIK-1 T110A; TPenA IC50, THIK-1 T110A, individual recordings) was 583 µM and 1570 µM and 596 µM and 1530 µM and 2420 µM and 1850 µM and 1140 µM and 1600 µM and 1210 µM and 982 µM and 651 µM, the IC50 (THIK-1 T110A; TPenA IC50, THIK-1 T110A, mean) was 1280 µM and the Normalized currents (THIK-1 V269A; THIK-1 V269A, 1 µM TPenA) was 1.00. The Normalized currents (THIK-1 V269A; THIK-1 V269A, 4 µM TPenA) was 0.97, the Normalized currents (THIK-1 V269A; THIK-1 V269A, 15.6 µM TPenA) was 0.93 and the Normalized currents (THIK-1 V269A; THIK-1 V269A, 62.5 µM TPenA) was 0.87. For the same compound, the Normalized currents (THIK-1 V269A; THIK-1 V269A, 250 µM TPenA) was 0.78, the Normalized currents (THIK-1 V269A; THIK-1 V269A, 1000 µM TPenA) was 0.65 and the Normalized currents (THIK-1 V269A; THIK-1 V269A, 4000 µM TPenA) was 0.45. The IC50 (THIK-1 V269A; THIK-1 V269A, mean) was 2200 µM and the IC50 (THIK-1 V269A; V269A mutant) was 2200 µM.
